Assay [1] concerns CRM1-mediated nuclear export of HDAC7-FLAG. Briefly: Subcellular localization of HDAC7-FLAG in transfected cells by indirect immunofluorescence. Format: cell-based. As for the experimental part:
Immunofluorescence and Confocal Microscopy—Cells were plated onto glass coverslips and transfected the following day with Lipofectamine 2000 (Life Technologies) according to the manufacturer's instructions. After incubation overnight, transfected cells were fixed with 1% paraformaldehyde, permeabilized with phosphate buffered saline (PBS), pH 7.2 and 0.5% Triton X-100 and then incubated for 60 min at room temperature with the appropriate antibodies at dilutions typically between 1:100 and 1:1000. Cells were mounted onto glass slides in PBS/90% glycerol containing 1 mM paraphenylenediamine as an antifade reagent. Confocal microscopy was performed with a Zeiss LSM510 laser scanning confocal microscope at 488 nm (Alexa 488-conjugated secondary antibodies) and 543 nm (Cy3-conjugated secondary antibodies). The pinhole aperture was set to 1.0 airy unit for each channel. Band-pass filters and sequential scanning of individual fluorescent probes were used to eliminate cross talk between channels. Images were collected as 12-bit images, and each channel was independently rescaled from 0 to 255 (8-bit) for final presentation. […]

Assay [2] concerns Nur77. Briefly: Nur77 mRNA expression by northern blot in DO11.10 T-cells. The class given is cell-based, mouse. The following applies: DO11.10 cells, 400 nM, various times. As for the experimental part: DO11.10 T cell hybridomas were grown at 37° C., in RPMI 1640 medium supplemented with 10% FBS, 2 mM glutamine and 50 U/ml of streptomycin/penicillin. Transfections were performed by the DEAE-dextran-chlororquine method. The DNA concentration was kept constant in the different samples by using the corresponding empty vector. In some cases, 16 hours after transfection cells were treated with PMA (10 ng/ml) and ionomycin (0.5 μM) for 4 hours and then harvested for reporter assay. All transfections were done in triplicate and are presented as the result of at least 3 independent experiments. Luciferase reporter assays were done with the dual luciferase reporter assay system (Promega) using an EF1α promoter-driven renilla expression vector as an internal control.
The tissue-expression of HDAC7 was analyzed as using a multiple human tissue Northern blot and RNA Master blots obtained from Clontech. Expression of Nur77 upon TSA treatment was assessed as followed. DO11.10 cells were treated with 400 nM of TSA (Sigma) for various times. […] Autoradiographs were analyzed with a FUJIX BAS1000 phosphorus imaging system (Fuji, Tokyo, Japan). Quantification analysis of autoradiographs was performed on a Macintosh computer using the public domain NIH Image 1.62 program (developed at the U.S. National Institute of Health).

In assay [3] the test system is thymocytes. Briefly: Apoptosis in thymocytes expressing dominant negative HDAC7 constructs, commercially available kit. Format: cell-based. The settings on record: construct expressed in thymocytes. As for the experimental part: Constructs encoding dominant negative mutants of HDAC7 were generated. These constructs direct expression of either the amino terminal domain (amino acids 1-437) or the carboxyl terminal domain (amino acids 438-915) of HDAC7 in mammalian cells. These construct were individually introduced into thymocytes. Apoptosis was measured using a commercially available kit.

Four molecules from patent US7745173B2, “Histone deacetylase and methods of use thereof” (The J. David Gladstone Institutes, priority 2001, dated 2010) can be followed below.

For the molecule `CCC(=C/[C@H](C)C/C=C/C(C)=C/[C@@H](C)C(=O)[C@@H](C)[C@H](O)[C@@H](C)C/C(C)=C/C(=O)O)/C=C/[C@@H]1OC(=O)C=C[C@@H]1C` [leptomycin B], in assay [1], the “Subcellular localization of HDAC7-FLAG” value is given as “nuclear localization of HDAC7-FLAG in most transfected cells”. `CC(/C=C/C(=O)NO)=C\[C@@H](C)C(=O)c1ccc(N(C)C)cc1` [trichostatin A]: in assay [2], the “Nur77 mRNA expression” value is “induced in a time dependent manner”.

B1: amino terminal domain (amino acids 1-437): dominant negative mutant of HDAC7: amino terminal domain, amino acids 1-437, expressed from a construct (protein, UniProt Q8WUI4 1-437, looked up, fragment)
chain: MDLRVGQRPPVEPPPEPTLLALQRPQRLHHHLFLAGLQQQRSVEPMRLSMDTPMPELQVGPQEQELRQLLHKDKSKRSAVASSVVKQKLAEVILKKQQAALERTVHPNSPGIPYRTLEPLETEGATRSMLSSFLPPVPSLPSDPPEHFPLRKTVSEPNLKLRYKPKKSLERRKNPLLRKESAPPSLRRRPAETLGDSSPSSSSTPASGCSSPNDSEHGPNPILGSEALLGQRLRLQETSVAPFALPTVSLLPAITLGLPAPARADSDRRTHPTLGPRGPILGSPHTPLFLPHGLEPEAGGTLPSRLQPILLLDPSGSHAPLLTVPGLGPLPFHFAQSLMTTERLSGSGLHWPLSRTRSEPLPPSATAPPPPGPMQPRLEQLKTHVQVIKRSAKPSEKPRLRQIPSAEDLETDGGGPGQVVDDGLEHRELGHGQPEAR
For the molecule B1, in assay [3], the Apoptosis in thymocytes entry is recorded as “strongly induces apoptosis”.

B2: carboxyl terminal domain (amino acids 438-915): dominant negative mutant of HDAC7: carboxyl terminal domain, amino acids 438-915, expressed from a construct (protein, UniProt Q8WUI4 438-915, looked up, fragment)
chain: GPAPLQQHPQVLLWEQQRLAGRLPRGSTGDTVLLPLAQGGHRPLSRAQSSPAAPASLSAPEPASQARVLSSSETPARTLPFTTGLIYDSVMLKHQCSCGDNSRHPEHAGRIQSIWSRLQERGLRSQCECLRGRKASLEELQSVHSERHVLLYGTNPLSRLKLDNGKLAGLLAQRMFVMLPCGGVGVDTDTIWNELHSSNAARWAAGSVTDLAFKVASRELKNGFAVVRPPGHHADHSTAMGFCFFNSVAIACRQLQQQSKASKILIVDWDVHHGNGTQQTFYQDPSVLYISLHRHDDGNFFPGSGAVDEVGAGSGEGFNVNVAWAGGLDPPMGDPEYLAAFRIVVMPIAREFSPDLVLVSAGFDAAEGHPAPLGGYHVSAKCFGYMTQQLMNLAGGAVVLALEGGHDLTAICDASEACVAALLGNRVDPLSEEGWKQKPNLNAIRSLEAVIRVHSKYWGCMQRLASCPDSWVPRVPGA
As for B2, the Apoptosis in thymocytes result in assay [3] is on record as “strongly induces apoptosis”.
